Among the data in patent US12286435B2, “Compound having benzo seven-membered ring structure, preparation method therefor, and use thereof” (BIONNA (BEIJING) MEDICAL TECHNOLOGY CO., LTD., priority 2019, dated 2025) are Ki values, retold here.

For one assay, the target named is BRD4 BD2 protein (Homo sapiens (Human), UniProt O60885). As to the kind of experiment: Fluorescence polarization binding affinity (Ki) with BRD4 BD2 protein.
In a further assay the target is BRD4 BD1 protein (Homo sapiens (Human), UniProt O60885). As to the kind of experiment: Fluorescence polarization binding affinity (Ki) with BRD4 BD1 protein. In general terms: In fluorescence polarisation assays a small probe gives low polarisation when free and higher when bound to something large.
Setting [1] is: fluorescence polarization, Ki calculated from IC50.

Like-named read-outs stand apart in the source and are kept apart here. Some results are limits rather than exact numbers.

What is called Ki is a measure of affinity in units of concentration, obtained from inhibition or displacement. Regarding `COc1ccccc1NC1CCn2nnc(C)c2-c2ccc(C3=CCNCC3)cc21` (stereo not shown) [LC158, N-(2-methoxyphenyl)-1-methyl-9-(1,2,3,6-tetrahydropyridin-4-yl)-6,7-dihydro-5H-benzo[c][1,2,3]triazolo[1,5-a]azepin-7-amine 2,2,2-trifluoroacetate], the Ki on BRD4 BD2 protein (setting [1]) was 41.6 nM; at BRD4 BD1 protein (setting [1]), 859 nM.

As for `COc1cccc(NC2CCn3nnc(C)c3-c3ccc(C4=CCNCC4)cc32)c1` (stereo not shown) [LC159, N-(3-methoxyphenyl)-1-methyl-9-(1,2,3,6-tetrahydropyridin-4-yl)-6,7-dihydro-5H-benzo[c][1,2,3]triazolo[1,5-a]azepin-7-amine 2,2,2-trifluoroacetate], the Ki was 65.4 nM on BRD4 BD2 protein (setting [1]) and 2130 nM on BRD4 BD1 protein (setting [1]).

Regarding `COc1ccc(NC2CCn3nnc(C)c3-c3ccc(C4=CCNCC4)cc32)cc1` (stereo not shown) [LC160, N-(4-methoxyphenyl)-1-methyl-9-(1,2,3,6-tetrahydropyridin-4-yl)-6,7-dihydro-5H-benzo[c][1,2,3]triazolo[1,5-a]azepin-7-amine 2,2,2-trifluoroacetate], the Ki at BRD4 BD2 protein (setting [1]) is 114 nM; at BRD4 BD1 protein (setting [1]), 2270 nM.

`Cc1nnn2c1-c1ccc(-c3cnn(C)c3)cc1C(N(C=O)c1cccc(Cl)c1)CC2` (stereo not shown) [LC174, N-(3-chlorophenyl)-N-(1-methyl-9-(1-methyl-1H-pyrazol-4-yl)-6,7-dihydro-5H-benzo[c][1,2,3]triazolo[1,5-a]azepin-7-yl)formamide]: the Ki is 623 nM on BRD4 BD2 protein (setting [1]) and 949 nM at BRD4 BD1 protein (setting [1]).

For the compound `Cc1nnn2c1-c1ccc(-c3cnn(C)c3)cc1C(Nc1c(F)cccc1Cl)CC2` (stereo not shown) [LC185, N-(2-chloro-6-fluorophenyl)-1-methyl-9-(1-methyl-1H-pyrazol-4-yl)-6,7-dihydro-5H-benzo[c][1,2,3]triazolo[1,5-a]azepin-7-amine], the Ki at BRD4 BD2 protein (setting [1]) is 16.4 nM; on BRD4 BD1 protein (setting [1]), 162 nM.

As to `Cc1nnn2c1-c1ccc(-c3cnn(C)c3)cc1C(Nc1cccc(Cl)c1)CC2` (stereo not shown) [LC186, N-(3-chlorophenyl)-1-methyl-9-(1-methyl-1H-pyrazol-4-yl)-6,7-dihydro-5H-benzo[c][1,2,3]triazolo[1,5-a]azepin-7-amine], the inhibition constant (Ki) was 6.98 nM at BRD4 BD2 protein (setting [1]) and 31.3 nM on BRD4 BD1 protein (setting [1]).

Turning to `Cc1nnn2c1-c1ccc(C3=CCNCC3)cc1C(Nc1cccc(Cl)c1F)CC2` (stereo not shown) [LC190, N-(3-chloro-2-fluorophenyl)-1-methyl-9-(1,2,3,6-tetrahydropyridin-4-yl)-6,7-dihydro-5H-benzo[c][1,2,3]triazolo[1,5-a]azepin-7-amine 2,2,2-trifluoroacetate], the Ki is 60 nM at BRD4 BD2 protein (setting [1]) and 592 nM on BRD4 BD1 protein (setting [1]).

Consider `Cc1nnn2c1-c1ccc(-c3cnn(C)c3)cc1C(Nc1ccccc1Cl)CC2` (stereo not shown) [LC191, N-(2-chlorophenyl)-1-methyl-9-(1-methyl-1H-pyrazol-4-yl)-6,7-dihydro-5H-benzo[c][1,2,3]triazolo[1,5-a]azepin-7-amine], for which the Ki was 11.2 nM at BRD4 BD2 protein (setting [1]) and 51.8 nM at BRD4 BD1 protein (setting [1]).

Regarding `Cc1nnn2c1-c1ccc(C3=CCNCC3)cc1C(Nc1ccc(F)c(Cl)c1)CC2` (stereo not shown) [LC192, N-(3-chloro-4-fluorophenyl)-1-methyl-9-(1,2,3,6-tetrahydropyridin-4-yl)-6,7-dihydro-5H-benzo[c][1,2,3]triazolo[1,5-a]azepin-7-amine 2,2,2-trifluoroacetate], the inhibitory constant (Ki) is 56.6 nM at BRD4 BD2 protein (setting [1]) and 819 nM at BRD4 BD1 protein (setting [1]).

As for `Cc1nnn2c1-c1ccc(C3=CCNCC3)cc1C(N(C=O)c1cccc(Cl)c1)CC2` (stereo not shown) [LC193, N-(3-chlorophenyl)-N-(1-methyl-9-(1,2,3,6-tetrahydropyridin-4-yl)-6,7-dihydro-5H-benzo[c][1,2,3]triazolo[1,5-a]azepin-7-yl)formamide 2,2,2-trifluoroacetate], the Ki on BRD4 BD2 protein (setting [1]) is 698 nM; on BRD4 BD1 protein (setting [1]) it was over 4000 nM.

With `Cc1nnn2c1-c1ccc(C3=CCNCC3)cc1C(Nc1cc(Cl)ccc1F)CC2` (stereo not shown) [LD08, N-(5-chloro-2-fluorophenyl)-1-methyl-9-(1,2,3,6-tetrahydropyridin-4-yl)-6,7-dihydro-5H-benzo[c][1,2,3]triazolo[1,5-a]azepin-7-amine 2,2,2-trifluoroacetate], the Ki on BRD4 BD2 protein (setting [1]) is 62.3 nM; at BRD4 BD1 protein (setting [1]), 1270 nM.

For the compound `CC(=O)N1CC=C(c2ccc3c(c2)C(N(C(C)=O)c2cccc(Cl)c2)CCn2nnc(C)c2-3)CC1` (stereo not shown) [LD13], the figures for the Ki on BRD4 BD2 protein and at BRD4 BD1 protein were 1740 nM and 944 nM, respectively.

For the compound `CCC(=O)N1CC=C(c2ccc3c(c2)C(Nc2ccc(Cl)cc2)CCn2nnc(C)c2-3)CC1` (stereo not shown) [LD14, 1-(4-(7-((4-chlorophenyl)amino)-1-methyl-6,7-dihydro-5H-benzo[c][1,2,3]triazolo[1,5-a]azepin-9-yl)-3,6-dihydropyridin-1(2H)-yl)propan-1-one], the Ki on BRD4 BD2 protein (setting [1]) was 6.14 nM; on BRD4 BD1 protein (setting [1]), 14.3 nM.

As to `CCC(C)N1CC=C(c2ccc3c(c2)C(Nc2ccc(Cl)cc2)CCn2nnc(C)c2-3)CC1` (stereo not shown) [LD17, 9-(1-(sec-butyl)-1,2,3,6-tetrahydropyridin-4-yl)-N-(4-chlorophenyl)-1-methyl-6,7-dihydro-5H-benzo[c][1,2,3]triazolo[1,5-a]azepin-7-amine 2,2,2-trifluoroacetate], the inhibitory constant (Ki) on BRD4 BD2 protein (setting [1]) was 51 nM; at BRD4 BD1 protein (setting [1]), 616 nM.

With `Cc1nnn2c1-c1ccc(C3=CCNCC3)cc1C(Nc1cccc(CC#N)c1)CC2` (stereo not shown) [RC71, 2-(3-((1-methyl-9-(1,2,3,6-tetrahydropyridin-4-yl)-6,7-dihydro-5H-benzo[c][1,2,3]triazolo[1,5-a]azepin-7-yl)amino)phenyl)acetonitrile 2,2,2-trifluoroacetate], the Ki at BRD4 BD2 protein (setting [1]) is 52.5 nM; on BRD4 BD1 protein (setting [1]), 1040 nM.

Take `Cc1nnn2c1-c1ccc(C3=CCNCC3)cc1C(Nc1ccc(CC#N)cc1)CC2` (stereo not shown) [RC73, 2-(4-((1-methyl-9-(1,2,3,6-tetrahydropyridin-4-yl)-6,7-dihydro-5H-benzo[c][1,2,3]triazolo[1,5-a]azepin-7-yl)amino)phenyl)acetonitrile 2,2,2-trifluoroacetate]: the Ki on BRD4 BD2 protein (setting [1]) is 139 nM; on BRD4 BD1 protein (setting [1]), 2370 nM.

`Cc1nnn2c1-c1ccc(C3=CCNCC3)cc1C(Nc1ccccc1CC#N)CC2` (stereo not shown) [RC82, 2-(2-((1-methyl-9-(1,2,3,6-tetrahydropyridin-4-yl)-6,7-dihydro-5H-benzo[c][1,2,3]triazolo[1,5-a]azepin-7-yl)amino)phenyl) acetonitrile 2,2,2-trifluoroacetate]: the Ki is 1520 nM on BRD4 BD2 protein (setting [1]) and 2370 nM at BRD4 BD1 protein (setting [1]).

As to `Cc1nnn2c1-c1ccc(C3=CCNCC3)cc1C(Nc1ccccc1C#N)CC2` (stereo not shown) [RC116, 2-((1-methyl-9-(1,2,3,6-tetrahydropyridin-4-yl)-6,7-dihydro-5H-benzo[c][1,2,3]triazolo[1,5-a]azepin-7-yl)amino)benzonitrile 2,2,2-trifluoroacetate], the Ki on BRD4 BD2 protein (setting [1]) was 115 nM; on BRD4 BD1 protein (setting [1]), 1000 nM.

Regarding `Cc1nnn2c1-c1ccc(C3=CCN(C)CC3)cc1C(Nc1ccccc1Cl)CC2` (stereo not shown) [RD06, N-(2-chlorophenyl)-1-methyl-9-(1-methyl-1,2,3,6-tetrahydropyridin-4-yl)-6,7-dihydro-5H-benzo[c][1,2,3]triazolo[1,5-a]azepin-7-amine 2,2,2-trifluoroacetate], the inhibition constant (Ki) on BRD4 BD2 protein (setting [1]) was 56.4 nM; on BRD4 BD1 protein (setting [1]), 1030 nM.

Consider `Cc1nnn2c1-c1ccc(C3=CCNCC3)cc1C(Nc1cccc(CO)c1)CC2` (stereo not shown) [RD21, (3-((1-methyl-9-(1,2,3,6-tetrahydropyridin-4-yl)-6,7-dihydro-5H-benzo[c][1,2,3]triazolo[1,5-a]azepin-7-yl)amino)phenyl)methanol 2,2,2-trifluoroacetate], for which the values for the Ki on BRD4 BD2 protein (setting [1]) and on BRD4 BD1 protein (setting [1]) were 90.4 nM and 1530 nM, respectively.

Consider `Cc1nnn2c1-c1ccc(C3=CCN(C)CC3)cc1C(Nc1ccc(CO)cc1)CC2` (stereo not shown) [RD41, (4-((1-methyl-9-(1-methyl-1,2,3,6-tetrahydropyridin-4-yl)-6,7-dihydro-5H-benzo[c][1,2,3]triazolo[1,5-a]azepin-7-yl)amino)pheny 1)methanol 2,2,2-trifluoroacetate], for which the Ki at BRD4 BD2 protein (setting [1]) is 55.1 nM; at BRD4 BD1 protein (setting [1]), 1550 nM.

As for `CCN1CC=C(c2ccc3c(c2)C(Nc2cccc(Cl)c2F)CCn2nnc(C)c2-3)CC1` (stereo not shown) [RD115, N-(3-chloro-2-fluorophenyl)-9-(1-ethyl-1,2,3,6-tetrahydropyridin-4-yl)-1-methyl-6,7-dihydro-5H-benzo[c][1,2,3]triazolo[1,5-a]azepin-7-amine 2,2,2-trifluoroacetate], the values for the Ki on BRD4 BD2 protein (setting [1]) and at BRD4 BD1 protein (setting [1]) were 59.1 nM and 1130 nM, respectively.

As for `CCN1CC=C(c2ccc3c(c2)C(Nc2ccc(F)c(Cl)c2)CCn2nnc(C)c2-3)CC1` (stereo not shown) [RD121, N-(3-chloro-4-fluorophenyl)-9-(1-ethyl-1,2,3,6-tetrahydropyridin-4-yl)-1-methyl-6,7-dihydro-5H-benzo[c][1,2,3]triazolo[1,5-a]azepin-7-amine 2,2,2-trifluoroacetate], the Ki came to 31.8 nM on BRD4 BD2 protein and 788 nM at BRD4 BD1 protein.

Turning to `CCN1CC=C(c2ccc3c(c2)C(Nc2cc(Cl)ccc2F)CCn2nnc(C)c2-3)CC1` (stereo not shown) [RD123, N-(5-chloro-2-fluorophenyl)-9-(1-ethyl-1,2,3,6-tetrahydropyridin-4-yl)-1-methyl-6,7-dihydro-5H-benzo[c][1,2,3]triazolo[1,5-a]azepin-7-amine 2,2,2-trifluoroacetate], the Ki on BRD4 BD2 protein is 40.8 nM; at BRD4 BD1 protein, 1090 nM.

For the compound `CCN1CCC(c2ccc3c(c2)C(Nc2cccc(Cl)c2)CCn2nnc(C)c2-3)CC1` (stereo not shown) [RD142, N-(3-chlorophenyl)-9-(1-ethylpiperidin-4-yl)-1-methyl-6,7-dihydro-5H-benzo[c][1,2,3]triazolo[1,5-a]azepin-7-amine 2,2,2-trifluoroacetate], the Ki at BRD4 BD2 protein (setting [1]) was 193 nM; at BRD4 BD1 protein (setting [1]) it was 4410 nM.

In the case of `Cc1nnn2c1-c1ccc(C3=CCN(C4CCCCC4)CC3)cc1C(Nc1cccc(Cl)c1F)CC2` (stereo not shown) [RD178, N-(3-chloro-2-fluorophenyl)-9-(1-cyclohexyl-1,2,3,6-tetrahydropyridin-4-yl)-1-methyl-6,7-dihydro-5H-benzo[c][1,2,3]triazolo[1,5-a]azepin-7-amine 2,2,2-trifluoroacetate], the inhibitory constant (Ki) at BRD4 BD2 protein stood at 32.7 nM; at BRD4 BD1 protein, 1260 nM.
